From patent US10793529B2, “Substituted pyridazines and 1,2,4-triazines as prostacyclin receptor modulators” (Arena Pharmaceuticals, Inc., priority 2008, dated 2020)

Legend:
human PRP = test: Human platelet aggregation inhibition test; format: cell-based; settings: ADP-induced aggregation (1×10^−5 M ADP) in human platelet-rich plasma
Protocol: Blood collected from healthy human volunteers in aqueous trisodium citrate solution was centrifuged at 150 g for 15 min and the upper layer was recovered to obtain platelet-rich plasma (PRP). The residual blood was centrifuged at 3000 g for 10 min and the supernatant was collected as platelet-poor plasma (PPP). Platelet concentration in the PRP was determined using the Z series Beckman Coulter particle counter (Beckman, Fullerton, Calif.) and adjusted to 250,000 platelets/μL using PPP. 480 μL of PRP was pre-incubated at 37° C. and stirred at 1200 rpm with 10 μL aqueous test compound solution for 1 min prior to induction of aggregation by the addition of 10 μL of aqueous adenosine diphosphate (ADP) solution to adjust the final ADP concentration in the PRP to 1×10^−5 M. The maximal amplitude of aggregation response within 3 min was determined and measured in triplicate using the Chronolog model 490 aggregometer (Chrono-log Corp., Havertown, Pa.). Percent inhibition of aggregation was calculated from the maximum decrease in optical density of the control (addition of water in place of the test compound solution) sample and of the samples containing test compound. The test compound was added to adjust the final concentration to the range 10^−9 to 10^−4 M, and IC50 values were determined by inhibition percentage of aggregation at each concentration.

[1] = biological target: human prostacyclin (PGI2) receptor (Homo sapiens (Human), UniProt P43119); test: HTRF assay for direct cAMP measurement; format: cell-based; settings: recombinant CHO-K1 cells stably transfected with human prostacyclin receptor; cAMP increase
human prostacyclin (PGI2) receptor, sequence (P43119 whole entry): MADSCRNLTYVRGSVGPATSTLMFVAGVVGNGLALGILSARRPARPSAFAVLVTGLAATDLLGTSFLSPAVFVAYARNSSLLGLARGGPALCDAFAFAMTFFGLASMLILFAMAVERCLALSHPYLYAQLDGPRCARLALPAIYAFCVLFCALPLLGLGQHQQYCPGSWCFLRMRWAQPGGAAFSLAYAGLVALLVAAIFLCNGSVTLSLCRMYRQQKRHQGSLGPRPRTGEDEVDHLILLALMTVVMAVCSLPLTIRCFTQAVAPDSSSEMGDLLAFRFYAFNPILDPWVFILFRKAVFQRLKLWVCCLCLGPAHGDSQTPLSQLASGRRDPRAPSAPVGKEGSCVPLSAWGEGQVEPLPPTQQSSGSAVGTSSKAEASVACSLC
Excerpt: Compounds were screened for agonists of the human prostacyclin (PGI2) receptor using the HTRF® assay for direct cAMP measurement (Gabriel et al., ASSAY and Drug Development Technologies, 1:291-303, 2003) and recombinant CHO-K1 cells stably transfected with human prostacyclin receptor. CHO-K1 cells were obtained from ATCC® (Manassas, Va.; Catalog # CCL-61). An agonist of the prostacyclin receptor was detected in HTRF® assay for direct cAMP measurement as a compound which increased cAMP concentration. HTRF® assay also was used to determine EC50 values for prostacyclin receptor agonists.
The HTRF® assay kit was purchased from Cisbio-US, Inc. (Bedford, Mass.; Catalog #62AM4PEC). The HTRF® assay supported by the kit is a competitive immunoassay between endogenous cAMP produced by the CHO-K1 cells and tracer cAMP labeled with the dye d2. The tracer binding is visualized by a monoclonal anti-cAMP antibody labeled with Cryptate. The specific signal (i.e., fluorescence resonance energy transfer, FRET) is inversely proportional to the concentration of unlabeled cAMP in the standard or sample.
The fluorescence ratio (665 nm/620 nm) of the standards (0.17 to 712 nM cAMP) included in the assay was calculated and used to generate a cAMP standard curve according to the kit manufacturer's instructions. The fluorescence ratio of the samples (test compound or compound buffer) was calculated and used to deduce respective cAMP concentrations by reference to the cAMP standard curve.
The HTRF® assay was carried out using a two-step protocol essentially according to the kit manufacturer's instructions, in 20 μL total volume per well in 384-well plate format (ProxiPlates; PerkinElmer, Fremont, Calif.; catalog #6008280). To each of the experimental wells was transferred 3000 recombinant CHO-K1 cells in 5 μL assay buffer (phosphate buffered saline containing calcium chloride and magnesium chloride (Invitrogen, Carlsbad, Calif.; catalog #14040) supplemented with IBMX ([…]) and rolipram ([…]) (phosphodiesterase inhibitors; Sigma-Aldrich, St. Louis, Mo.; catalog #15879 and catalog # R6520, respectively) and 0.1% bovine serum albumin (BSA) fraction V (Sigma-Aldrich; catalog # A3059)), followed by test compound in 5 μL assay buffer or 5 μL assay buffer. The plate was then incubated at room temperature for 1 h. To each well was then added 5 μL cAMP-d2 conjugate in lysis buffer and 5 μL Cryptate conjugate in lysis buffer according to the kit manufacturer's instructions. The plate was then further incubated at room temperature for 1 h, after which the assay plate was read.
The HTRF® readout was accomplished using a PHERAstar (BMG LABTECH Inc., Durham, N.C.) or EnVision™ (PerkinElmer, Fremont Calif.) microplate reader.

[2] = system: MCT-induced pulmonary arterial hypertension in rat; test: Rat monocrotaline (MCT) model of pulmonary arterial hypertension; format: in vivo; settings: 30 mg/kg oral gavage twice a day for 21 days, male Wistar rats, 60 mg/kg MCT s.c.; FIG. 1
Protocol: Male Wistar rats (100-150 g at start of study) (Charles River Laboratories, Wilmington, Mass.) were housed two per cage and maintained in a humidity-(40-60%) and temperature-(68-72° F.) controlled facility on a 12 hr: 12 hr light/dark cycle (lights on at 6:30 am) with free access to food (Harlan Teklad, Orange Calif., Rodent Diet 8604) and water. Rats were allowed one week of habituation to the animal facility before testing.
The rat monocrotaline (MCT) model is a standard and well-accepted model of pulmonary arterial hypertension. MCT induces acute pulmonary endothelial damage associated with pulmonary vascular inflammation. […]
Rats were randomly given a single subcutaneous injection of either 60 mg/kg MCT (Sigma, St. Louis, Mo.) or 0.9% saline (sham) and assigned to receive oral administration of 20% hydroxypropyl beta-cyclodextrin (vehicle) or test compound (30 mg/kg; FIG. 1). […] Heart chamber weights were measured on Day 22. […] The ratio of right ventricular (RV) weight to left ventricle plus septum (LV+S) weight (this ratio is indicated as “RV/(LV+S)” in FIG. 1) was calculated as an index of the hypertrophic response to the induced pulmonary arterial hypertension and, as such, as an index of a test compound's therapeutic efficacy for pulmonary arterial hypertension.

| Compound | IC50 (human PRP) [nM] | EC50 [1] [nM] | right ventricle hypertrophic response, RV/(LV+S) [2] |
| --- | --- | --- | --- |
| O=C(O)COC[C@H]1CC[C@@H](Cn2nc(-c3ccccc3)c(-c3cccc(F)c3F)cc2=O)CC1 [Compound 8, 2-(((1s,4s)-4-((4-(2,3-difluorophenyl)-6-oxo-3-phenylpyridazin-1(6H)-yl)methyl)cyclohexyl)methoxy)acetic acid] | 67 | – | – |
| O=C(O)COC[C@H]1CC[C@@H](Cn2nc(-c3ccccc3)c(-c3cccc(Cl)c3F)cc2=O)CC1 [Compound 31, 2-(((1s,4s,)-4-((4-(3-chloro-2-fluorophenyl)-6-oxo-3-phenylpyridazin-1(6H)-yl)methyl)cyclohexyl)methoxy)acetic acid] | 21 | 31 | – |
| Cc1ccc(-c2nc(=O)n(C[C@H]3CC[C@@H](COCC(=O)O)CC3)nc2-c2ccc(C)cc2)cc1 [Compound 43, 2-(((1s,4s)-4-((3-oxo-5,6-di-p-tolyl-1,2,4-triazin-2(3H)-yl)methyl)cyclohexyl)methoxy)acetic acid] | 130 | 36 | – |
| O=C(O)COC[C@H]1CC[C@@H](Cn2nc(-c3ccccc3)c(-c3cccc(Cl)c3)nc2=O)CC1 [Compound 67, 2-(((1s,4s)-4-((5-(3-chlorophenyl)-3-oxo-6-phenyl-1,2,4-triazin-2(3H)-yl)methyl)cyclohexyl)methoxy)acetic acid] | – | 73 | – |
| Cc1ccc(-c2nn(C[C@H]3CC[C@@H](COCC(=O)O)CC3)c(=O)nc2-c2ccccc2)cc1 [Compound 68, 2-(((1s,4s)-4-((3-oxo-5-phenyl-6-p-tolyl-1,2,4-triazin-2(3H)-yl)methyl)cyclohexyl)methoxy)acetic acid] | – | – | inhibited the hypertrophic response |
| COc1ccc(-c2nn(C[C@H]3CC[C@@H](COCC(=O)O)CC3)c(=O)nc2-c2ccccc2)cc1 [Compound 69, 2-(((1s,4s)-4-((6-(4-methoxyphenyl)-3-oxo-5-phenyl-1,2,4-triazin-2(3H)-yl)methyl)cyclohexyl)methoxy)acetic acid] | 22 | 8 | – |
